{"source": "patent US12396459B2", "about": "“Synergistically effective herbicide composition comprising pyridate and at least one defined 4-HPPD inhibitor” (BELCHIM CROP PROTECTION NV, priority 2018, dated 2025)", "assay_type_in_all_cases": "in vivo", "key": {"[1]": {"system": "Sorghum halepense", "test": "Field trial post-emergence in maize: SORHA", "conditions": "7-14 DAA; # = 1; g a.c./ha: PYR 300, MES 100, PYR + MES 300 + 90", "experimental": "(§1) Herbicidal activity of herbicide compositions according to the first aspect of the present invention with regard to different types of unwanted vegetation was determined during trials performed on test fields (field trials). Individual compositions comprising pyridate and individual compositions comprising a defined 4-HPPD inhibitor are compared with a herbicide composition according to the invention comprising both pyridate and a defined 4-HPPD inhibitor. The expected activity of the combination of the active compounds pyridate and a defined 4-HPPD inhibitor is calculated according to above mentioned calculation method by Colby, in order to evaluate a synergistic effect between pyridate and a defined 4-HPPD inhibitor.\n(§2) Herbicidal activity was determined by applying herbicide compositions on emerged unwanted vegetation on fields where maize was cultivated. Pyridate and a defined 4-HPPD inhibitor were applied as a tank mixture by mixing these active compounds prior to use in a spray tank. The corresponding mixture was in the form of a spray liquor. […] At a specified number of days after application (DAA), the degree of damage to the unwanted vegetation is rated in % of plants of unwanted vegetation that were killed, which was assessed by visually controlling the plants."}, "[2]": {"system": "Erodium ciconium", "test": "Field trial post-emergence in maize: EROCC", "experimental": "as §1\n(§3) Herbicidal activity was determined by applying herbicide compositions on emerged unwanted vegetation on fields where maize was cultivated. Pyridate and a defined 4-HPPD inhibitor were applied as a tank mixture by mixing these active compounds prior to use in a spray tank. The corresponding mixture was in the form of a spray liquor. Besides, spray liquors of individual compositions comprising pyridate and of individual compositions comprising a defined 4-HPPD inhibitor were used. Test plants of unwanted vegetation with a growth stage corresponding to BBCH 10-18 (according to the extended BBCH-scale) were sprayed with the active compound preparations such that particular desired amounts of active compounds are applied per unit area. Spray liquor was diluted with water to arrive at an application volume of 50 to 450 L/ha. At a specified number of days after application (DAA), the degree of damage to the unwanted vegetation is rated in % of plants of unwanted vegetation that were killed, which was assessed by visually controlling the plants.\n(§4) Example 1 concerns a herbicide composition comprising a combination of pyridate and mesotrione, which was applied post-emergence on unwanted vegetation on a field where maize was cultivated, according to the test conditions mentioned above."}, "[3]": {"system": "Tripleurospermum inodorum", "test": "Field trial post-emergence in maize: MATIN", "conditions": "for herbicidal effect (h.e.): # = 1, g a.c./ha: PYR 300, MES 100, PYR + MES 300 + 90", "experimental": "as §1, §3"}, "[4]": {"system": "Veronica persica", "test": "Field trial post-emergence in maize: VERPE", "conditions": "for herbicidal effect (h.e.): g a.c./ha: PYR 300, MES 100, PYR + MES 300 + 90", "experimental": "as §1, §3"}, "[5]": {"system": "Echinochloa crus-galli", "test": "Field trial post-emergence in maize: ECHCG", "conditions": "for herbicidal effect (h.e.): g a.c./ha: PYR 300, MES 100, PYR + MES 300 + 90", "experimental": "as §1, §3"}, "[6]": {"system": "Echinochloa crus-galli", "test": "Examples 6-8 herbicidal effect: ECHCG", "conditions": "7 DAA"}, "[7]": {"system": "Matricaria chamomilla", "test": "Field trial post-emergence in maize: MATCH", "experimental": "as §1, §3, §4"}, "[8]": {"system": "Galium aparine", "test": "Field trial post-emergence in maize: GALAP", "experimental": "as §1, §3, §4"}, "[9]": {"system": "Sonchus oleraceus", "test": "Field trial post-emergence in maize: SONOL", "conditions": "# = 1, g a.c./ha: PYR 300, MES 100, PYR + MES 300 + 90", "experimental": "as §1, §3"}, "[10]": {"system": "Capsella bursa-pastoris", "test": "Field trial post-emergence in maize: CAPBP", "experimental": "as §1, §3"}, "[11]": {"system": "Poa annua", "test": "Examples 6-8 herbicidal effect: POAAN", "conditions": "7 DAA"}, "[12]": {"system": "Hibiscus ternatus", "test": "Field trial post-emergence in maize: HIBTR", "conditions": "7-14 DAA; # = 2; g a.c./ha: PYR 300, MES 100, PYR + MES 300 + 90", "experimental": "as §1, §2"}, "[13]": {"system": "Amaranthus retroflexus", "test": "Field trial post-emergence in maize: AMARE", "conditions": "13-14 DAA; # = 1; g a.c./ha: PYR 450, MES 144, PYR + MES 450 + 144", "experimental": "as §1, §3"}, "[14]": {"system": "Papaver rhoeas", "test": "Field trial post-emergence in maize: PAPRH", "conditions": "# = 1, g a.c./ha: PYR 300, MES 100, PYR + MES 300 + 90", "experimental": "as §1, §3"}, "[15]": {"conditions": "g a.c./ha: MES 50, PYR + SMO 300 + 800"}, "[16]": {"conditions": "g a.c./ha: MES 80, PYR + MES 300 + 50"}}, "note": "Like-named read-outs stand apart in the source and are kept apart here."}
{"smiles": "CS(=O)(=O)c1ccc(C(=O)C2C(=O)CCCC2=O)c([N+](=O)[O-])c1", "note": "[MES, 2-(4-methylsulfonyl-2-nitrobenzoyl) cyclohexane-1,3-dione]", "values": [{"measurement": "herbicidal effect (h.e.)", "setting": "[1]", "result": 42, "unit": "%"}, {"measurement": "MES h.e.", "setting": "[2]; EROCC 14-20 DAA 90 g a.c./ha", "result": 32, "unit": "%"}, {"measurement": "MES h.e.", "setting": "[2]; EROCC 14-20 DAA 135 g a.c./ha", "result": 33, "unit": "%"}, {"measurement": "herbicidal effect (h.e.)", "setting": "[3]; 7-14 DAA", "result": 77, "unit": "%"}, {"measurement": "herbicidal effect (h.e.)", "setting": "[3]; 18-28 DAA", "result": 78, "unit": "%"}, {"measurement": "herbicidal effect (h.e.)", "setting": "[3]; 31-48 DAA", "result": 80, "unit": "%"}, {"measurement": "MES h.e.", "setting": "[3]; MATIN 24-31 DAA 45 g a.c./ha", "result": 80, "unit": "%"}, {"measurement": "herbicidal effect (h.e.)", "setting": "[4]; 7-14 DAA, # = 4", "result": 91, "unit": "%"}, {"measurement": "herbicidal effect (h.e.)", "setting": "[4]; 31-48 DAA, # = 5", "result": 93, "unit": "%"}, {"measurement": "MES h.e.", "setting": "[4]; VERPE 14-20 DAA 45 g a.c./ha", "result": 20, "unit": "%"}, {"measurement": "MES h.e.", "setting": "[4]; VERPE 14-20 DAA 90 g a.c./ha", "result": 75, "unit": "%"}, {"measurement": "MES h.e.", "setting": "[4]; VERPE 14-20 DAA 135 g a.c./ha", "result": 70, "unit": "%"}, {"measurement": "MES h.e.", "setting": "[4]; VERPE 24-31 DAA 45 g a.c./ha", "result": 10, "unit": "%"}, {"measurement": "MES h.e.", "setting": "[4]; VERPE 24-31 DAA 90 g a.c./ha", "result": 55, "unit": "%"}, {"measurement": "MES h.e.", "setting": "[4]; VERPE 24-31 DAA 135 g a.c./ha", "result": 60, "unit": "%"}, {"measurement": "herbicidal effect (h.e.)", "setting": "[5]; 7-14 DAA, # = 9", "result": 67, "unit": "%"}, {"measurement": "herbicidal effect (h.e.)", "setting": "[5]; 18-28 DAA, # = 14", "result": 51, "unit": "%"}, {"measurement": "herbicidal effect (h.e.)", "setting": "[5]; 31-48 DAA, # = 13", "result": 50, "unit": "%"}, {"measurement": "MES h.e.", "setting": "[5]; ECHCG 14-20 DAA 45 g a.c./ha", "result": 86, "unit": "%"}, {"measurement": "MES h.e.", "setting": "[5]; ECHCG 14-20 DAA 90 g a.c./ha", "result": 95, "unit": "%"}, {"measurement": "MES h.e.", "setting": "[5]; ECHCG 14-20 DAA 135 g a.c./ha", "result": 97, "unit": "%"}, {"measurement": "MES h.e.", "setting": "[5]; ECHCG 24-31 DAA 45 g a.c./ha", "result": 80, "unit": "%"}, {"measurement": "MES h.e.", "setting": "[5]; ECHCG 24-31 DAA 90 g a.c./ha", "result": 95, "unit": "%"}, {"measurement": "MES h.e.", "setting": "[5]; ECHCG 24-31 DAA 135 g a.c./ha", "result": 97, "unit": "%"}, {"measurement": "herbicidal effect (h.e.)", "setting": "[6]; [15]", "result": 70, "unit": "%"}, {"measurement": "herbicidal effect (h.e.)", "setting": "[6]; [16]", "result": 73, "unit": "%"}, {"measurement": "MES h.e.", "setting": "[7]; MATCH 14-20 DAA 45 g a.c./ha", "result": 53, "unit": "%"}, {"measurement": "MES h.e.", "setting": "[7]; MATCH 14-20 DAA 90 g a.c./ha", "result": 72, "unit": "%"}, {"measurement": "MES h.e.", "setting": "[7]; MATCH 14-20 DAA 135 g a.c./ha", "result": 81, "unit": "%"}, {"measurement": "MES h.e.", "setting": "[7]; MATCH 24-31 DAA 45 g a.c./ha", "result": 43, "unit": "%"}, {"measurement": "MES h.e.", "setting": "[7]; MATCH 24-31 DAA 90 g a.c./ha", "result": 77, "unit": "%"}, {"measurement": "MES h.e.", "setting": "[7]; MATCH 24-31 DAA 135 g a.c./ha", "result": 93, "unit": "%"}, {"measurement": "MES h.e.", "setting": "[8]; GALAP 14-20 DAA 45 g a.c./ha", "result": 30, "unit": "%"}, {"measurement": "MES h.e.", "setting": "[8]; GALAP 14-20 DAA 90 g a.c./ha", "result": 80, "unit": "%"}, {"measurement": "MES h.e.", "setting": "[8]; GALAP 14-20 DAA 135 g a.c./ha", "result": 92, "unit": "%"}, {"measurement": "MES h.e.", "setting": "[8]; GALAP 24-31 DAA 45 g a.c./ha", "result": 40, "unit": "%"}, {"measurement": "MES h.e.", "setting": "[8]; GALAP 24-31 DAA 90 g a.c./ha", "result": 90, "unit": "%"}, {"measurement": "MES h.e.", "setting": "[8]; GALAP 24-31 DAA 135 g a.c./ha", "result": 91, "unit": "%"}, {"measurement": "herbicidal effect (h.e.)", "setting": "[9]; 7-14 DAA", "result": 90, "unit": "%"}, {"measurement": "herbicidal effect (h.e.)", "setting": "[9]; 18-28 DAA", "result": 54, "unit": "%"}, {"measurement": "herbicidal effect (h.e.)", "setting": "[9]; 31-48 DAA", "result": 41, "unit": "%"}, {"measurement": "MES h.e.", "setting": "[10]", "result": 97, "unit": "%"}, {"measurement": "herbicidal effect (h.e.)", "setting": "[10]; 7-14 DAA, # = 3, g a.c./ha: PYR 300, MES 100, PYR + MES 300 + 90", "result": 90, "unit": "%"}, {"measurement": "MES h.e.", "setting": "[10]; CAPBP 14-20 DAA 300 g a.c./ha", "result": 97, "unit": "%"}, {"measurement": "MES h.e.", "setting": "[10]; CAPBP 14-20 DAA 600 g a.c./ha", "result": 97, "unit": "%"}, {"measurement": "MES h.e.", "setting": "[10]; CAPBP 24-31 DAA 45 g a.c./ha", "result": 97, "unit": "%"}, {"measurement": "herbicidal effect (h.e.)", "setting": "[11]; [15]", "result": 0, "unit": "%"}, {"measurement": "herbicidal effect (h.e.)", "setting": "[11]; [16]", "result": 3, "unit": "%"}, {"measurement": "herbicidal effect (h.e.)", "setting": "[12]", "result": 62, "unit": "%"}, {"measurement": "herbicidal effect (h.e.)", "setting": "[13]", "result": 45, "unit": "%"}, {"measurement": "herbicidal effect (h.e.)", "setting": "[14]; 18-28 DAA", "result": 80, "unit": "%"}, {"measurement": "herbicidal effect (h.e.)", "setting": "[14]; 31-48 DAA", "result": 89, "unit": "%"}]}
